Measured values as given in patent publication US7279497B2, “Benzopyran derivatives substituted with secondary amines including imidazole, their preparation and pharmaceutical compositions containing them” (Korea Research Institute of Chemical Technology, priority 2002, dated 2007).
“And” between values parts separate entries of the source, which are not always exact repeats. Equal values may be shown once.

What was measured:
isolated rat aorta = assay: Vasorelaxation effects on isolated blood vessels (methoxamine induced vasoconstriction)
Procedure: The following experiment was conducted to examine whether the compounds of the formula 1 have vasorelaxation effects.
Male Sprague-Dawly rats (350-450 g, obtained from the Experimental Animal Team of the Korea Research Institute of Chemical Technology) were knocked unconscious by hitting the occipital region, sacrificed by cervical dislocation, and underwent thoracotomy. After being quickly removed, the thoracic aorta was deprived of the adipose tissue and cut into aortic rings of 3 mm width. The aorta was lightly rubbed with a modified Krebs Henseleit buffer (Physiological Salt Solution, PSS) soaked cotton club to remove the inner epithelial layer therefrom. While being suspended in an organ bath containing a physiological buffer, the vascular tissue was allowed to equilibrate under a resting tension of 2 g and then, stand for 1 hour at 37° C. for stabilization with a supply of a carbogen consisting of 95% O2-5% CO2.
Thereafter, the vascular tissue was constricted with 10^−5 M phenylephrine and washed several times with PSS and this procedure was repeated again to ensure the stable reactivity of vascular smooth muscle to repetitive constriction/dilatation.
In addition, 3×10^−6 M methoxamine was used to induce an intensive constriction in the vascular smooth muscle. When the vasoconstriction induced by the methoxamine reached and maintained a maximum, test compounds and controls were cumulatively added to the organ baths in concentrations of 1, 3, 10 and 30 μM so as to induce vasodilatation. Cromakalim, BMS-180448, and BMS-191095 were used as the controls.
Following the addition of test compounds, the change in the maximal constriction induced by methoxamine was calculated to plot a concentration-relaxation response curve. Through a linear regression analysis, IC50, the drug concentration at which the vascular tissue is 50% dilated, was obtained for each compound.

isolated rat hearts = assay: Cardioprotective activity in isolated ischemic rat heart (Langendorff); conditions: 10 μM
Procedure: In order to determine whether the compounds of the chemical formula 1 are protective for ischemic hearts in vitro, experiments determining the anti-ischemic effects of the compounds on isolated rat hearts were conducted as follows.
For all in vitro studies, isolated rat hearts were used according to the published methods after some modification [HJ Ring, Arzneim.-Forsch./Drug Res. 39 (II), 1535 (1989): T. Krzeminski, et al., J. Pharmacological Methods, 25, 95, (1991)]
Male Sprague-Dawley rats weighing 300-450 g were anesthetized with sodium pentobarbital (100 mg/kg, i.p.). The tail vein was injected with heparin (1,000 U/kg) and then the trachea was intubated. While rats were mechanically ventilated with a rodent ventilator (Model 7025, Ugobasile, Italy), their hearts were perfused in situ with oxygenated modified Krebs-Henseleit bicarbonate buffer (described herein) by retrograde aortic cannulation. The hearts were then excised and moved to a Langendorff apparatus (H.S.E., Germany), where they were perfused with oxygenated modified Krebs-Henseleit bicarbonate buffer containing (in mM) NaCl 116, NaHCO3 24.9, KCl 4.7, MgSO4 1.1, KH2PO4 1.17, CaCl2 2.52, glucose 8.32 and pyruvate 2.0 at a constant perfusion pressure (85 mm Hg). A latex balloon filled with solvent (ethanol:water=1:1 (v/v)) and attached to a metal cannula was placed in the left ventricle through pulmonary vein and connected to a Isotec pressure transducer (H.S.E., Germany) for measurement of left ventricular pressure (LVP). The hearts were allowed to equilibrate for 15 min, at which time left ventricular end-diastolic pressure (EDP) was adjusted to 5 mm Hg and this balloon volume was maintained throughout the experiment. Then, baseline contractile function, heart rate (HR), and coronary flow (CF) (extracorporeal electromagnetic flow probe, Narco Bio-System, U.S.A.) were measured. Cardiac contractile function was calculated by subtracting LVEDP from LV peak systolic pressure (LVSP), yielding developed pressure (LVDP). Double product (DP), another important parameter for assessing cardiac performance, was calculated by multiplying HR by LVDP. Throughout the experiment, all these parameters were measured, and calculated before and 10 min after pretreatment with each compound and 30 min after the onset of reperfusion with buffer. Data on reperfusion DP were further expressed as the percentage to pretreatment DP.
After stabilization for 15 min, the hearts were pretreated for 10 min with respective drugs (10 μM, 0.04% DMSO) or vehicle (0.04% DMSO) before onset of global ischemia; test agents were administered directly into the oxygenator of the Langendorff apparatus immediately above the aortic root in a retrograde fashion as solutions in the perfusate. We then rendered the hearts globally ischemic by completely shutting off the perfusate for 30 min. Severity of ischemia was determined as the time to contracture (TTC, min) during global ischemia in which the first 5 mmHg increase in EDP was observed. Then, the hearts were reperfused and, 30 min later, contractile function (LVDP, DP) and cumulative reperfusion lactate dehydrogenase (LDH) release were measured. LDH was measured as a sensitive index for loss of cell viability with a kit supplied by Boerhinger Mannheim based on the technique of Wroblewski and LaDue [F. Wroblewski and J S. La Due, Proc Soc Exp Biol Med 90, 210, (1955)].

COC(OC)[C@@]1(C)Oc2ccc([N+](=O)[O-])cc2[C@@H](N(Cc2ncc[nH]2)c2ccc(Cl)cc2)[C@@H]1O [Example 1, (2S,3S,4R)-3,4-dihydro-2-dimethoxymethyl-3-hydroxy-2-methyl-6-nitro-4-[N-(4-chlorophenyl)-N-(1H-imidazol-2-ylmethyl)amino]-2H-1-benzopyran]
IC50 (isolated rat aorta; rat aorta constricted with methoxamine (3 μM)): 9.83 µM
vasorelaxant potency lower than BMS-180448 (isolated rat aorta; ratio of IC50): 7 times
LDVP × HR (%) (isolated rat hearts; 30 min reperfusion, % of pretreatment DP): 55.7%
TTC (time to contracture) (isolated rat hearts; global ischemia): 28 min and 28.0 min
EDP (isolated rat hearts; reperfusion): 24.0 MmHg
LDH (reperfusion release) (isolated rat hearts; reperfusion): 10.7 U/g
